Data reported in patent US11833133B2, “Solid oral pharmaceutical composition” (Orient Pharma Co., Ltd., priority 2020, dated 2023).
Values belong to the compound of their own block, whether it stands above or below them.

Experiments:
[1] = Dissolution test, USP apparatus II (Paddle Method) with sinkers, HPLC; format: physicochemical
Experimental: Dissolution Methods and Assay
Dissolution medium such as 0.1N HCl, phosphate buffer (pH 4.5) and phosphate buffer (pH 6.8) were prepared following USP Method. 0.3% Tween 80 was added into the medium to help solubilize the active ingredients. Dissolution conditions were summarized as in the following. Dissolution samples were analyzed by HPLC method.
Apparatus: USP apparatus II (Paddle Method) with sinkers.
Medium: 0.1N HCl, Phosphate Buffer phosphate buffer (pH 4.5) or Phosphate Buffer phosphate buffer (pH 6.8).
Filter: 10 μm HDPE full flow filter tips

[2] = system: nephrectomized rats fed high-cholesterol; settings: cited from earlier work
[3] = Long term stability of composition of pitavastatin calcium and ezetimibe (25° C./60% RH); format: physicochemical; settings: Example 5 composition, Alu-alu blisters
Experimental: The composition of pitavastatin calcium and ezetimibe prepared in Example 5 of the present disclosure were packed in Alu-alu blisters and stored under long term stability (25° C./60% RH). The assay of pitavastatin calcium and ezetimibe as well as the impurities were measured.

[4] = system: chronic kidney disease patients; settings: ezetimibe 10 mg/day co-administered with pitavastatin calcium 2 mg/day; cited from earlier work
[5] = Example 1 single layered tablet, 5 min
[6] = Example 1 single layered tablet, 10 min
[7] = Example 1 single layered tablet, 15 min
[8] = Example 1 single layered tablet, 30 min
[9] = Example 1 single layered tablet, 45 min
[10] = Example 2 double layered tablet, 5 min
[11] = Example 2 double layered tablet, 10 min
[12] = Example 2 double layered tablet, 15 min
[13] = Example 2 double layered tablet, 30 min
[14] = Example 2 double layered tablet, 45 min
[15] = pellets in one capsule (Example 5), 5 min
[16] = pellets in one capsule (Example 5), 10 min
[17] = pellets in one capsule (Example 5), 15 min
[18] = pellets in one capsule (Example 5), 20 min
[19] = pellets in one capsule (Example 5), 30 min
[20] = pellets in one capsule (Example 5), 45 min

% Released into 0.1 N HCl with 0.3% Tween 80 at sampling time (min) [1, 5]: 56%
% Released into Phosphate Buffer (pH 6.8) with 0.3% Tween 80 at sampling time (min) [1, 5]: 54%
% Released into 0.1 N HCl with 0.3% Tween 80 at sampling time (min) [1, 6]: 70%
% Released into Phosphate Buffer (pH 6.8) with 0.3% Tween 80 at sampling time (min) [1, 6]: 77%
% Released into 0.1 N HCl with 0.3% Tween 80 at sampling time (min) [1, 7]: 77%
% Released into Phosphate Buffer (pH 6.8) with 0.3% Tween 80 at sampling time (min) [1, 7]: 86%
% Released into 0.1 N HCl with 0.3% Tween 80 at sampling time (min) [1, 8]: 86%
% Released into Phosphate Buffer (pH 6.8) with 0.3% Tween 80 at sampling time (min) [1, 8]: 94%
% Released into 0.1 N HCl with 0.3% Tween 80 at sampling time (min) [1, 9]: 91%
% Released into Phosphate Buffer (pH 6.8) with 0.3% Tween 80 at sampling time (min) [1, 9]: 96%
% Released into 0.1 N HCl with 0.3% Tween 80 at sampling time (min) [1, 10]: 30%
% Released into Phosphate Buffer (pH 6.8) with 0.3% Tween 80 at sampling time (min) [1, 10]: 42%
% Released into 0.1 N HCl with 0.3% Tween 80 at sampling time (min) [1, 11]: 56%
% Released into Phosphate Buffer (pH 6.8) with 0.3% Tween 80 at sampling time (min) [1, 11]: 72%
% Released into 0.1 N HCl with 0.3% Tween 80 at sampling time (min) [1, 12]: 67%
% Released into Phosphate Buffer (pH 6.8) with 0.3% Tween 80 at sampling time (min) [1, 12]: 80%
% Released into 0.1 N HCl with 0.3% Tween 80 at sampling time (min) [1, 13]: 79%
% Released into Phosphate Buffer (pH 6.8) with 0.3% Tween 80 at sampling time (min) [1, 13]: 88%
% Released into 0.1 N HCl with 0.3% Tween 80 at sampling time (min) [1, 14]: 83%
% Released into Phosphate Buffer (pH 6.8) with 0.3% Tween 80 at sampling time (min) [1, 14]: 91%
% Released into 0.1 N HCl with 0.3% Tween 80 at sampling time (min) [1, 15]: 71%
% Released into Phosphate Buffer (pH 4.5) with 0.3% Tween 80 at sampling time (min) [1, 15]: 64%
% Released into Phosphate Buffer (pH 6.8) with 0.3% Tween 80 at sampling time (min) [1, 15]: 69%
% Released into 0.1 N HCl with 0.3% Tween 80 at sampling time (min) [1, 16]: 95%
% Released into Phosphate Buffer (pH 4.5) with 0.3% Tween 80 at sampling time (min) [1, 16]: 99%
% Released into Phosphate Buffer (pH 6.8) with 0.3% Tween 80 at sampling time (min) [1, 16]: 96%
% Released into 0.1 N HCl with 0.3% Tween 80 at sampling time (min) [1, 17]: 99%
% Released into Phosphate Buffer (pH 4.5) with 0.3% Tween 80 at sampling time (min) [1, 17]: 103%
% Released into Phosphate Buffer (pH 6.8) with 0.3% Tween 80 at sampling time (min) [1, 17]: 102%
% Released into 0.1 N HCl with 0.3% Tween 80 at sampling time (min) [1, 18]: 100%
% Released into Phosphate Buffer (pH 4.5) with 0.3% Tween 80 at sampling time (min) [1, 18]: 104%
% Released into Phosphate Buffer (pH 6.8) with 0.3% Tween 80 at sampling time (min) [1, 18]: 103%
% Released into 0.1 N HCl with 0.3% Tween 80 at sampling time (min) [1, 19]: 101%
% Released into Phosphate Buffer (pH 4.5) with 0.3% Tween 80 at sampling time (min) [1, 19]: 105%
% Released into Phosphate Buffer (pH 6.8) with 0.3% Tween 80 at sampling time (min) [1, 19]: 104%
% Released into 0.1 N HCl with 0.3% Tween 80 at sampling time (min) [1, 20]: 101%
% Released into Phosphate Buffer (pH 4.5) with 0.3% Tween 80 at sampling time (min) [1, 20]: 105%
% Released into Phosphate Buffer (pH 6.8) with 0.3% Tween 80 at sampling time (min) [1, 20]: 104%
Assay (%) ([3]; 3 Months): 99.5%
Impurities (%), Major ([3]; 3 Months): 0.06%
Impurities (%), Total ([3]; 3 Months): 0.06%
Assay (%) ([3]; 6 Months): 101%
Impurities (%), Major ([3]; 6 Months): 0.06%
Impurities (%), Total ([3]; 6 Months): 0.06%
Assay (%) ([3]; 9 Months): 102.9%
Impurities (%), Major ([3]; 9 Months): 0.06%
Impurities (%), Total ([3]; 9 Months): 0.06%
Assay (%) ([3]; 12 Months): 99.7%
Impurities (%), Major ([3]; 12 Months): 0.06%
Impurities (%), Total ([3]; 12 Months): 0.06%
Assay (%) ([3]; Initial): 100%
Impurities (%), Major ([3]; Initial): 0.06%
Impurities (%), Total ([3]; Initial): 0.06%
Structure (SMILES): O=C1[C@H](CC[C@H](O)c2ccc(F)cc2)[C@@H](c2ccc(O)cc2)N1c1ccc(F)cc1 [Ezetimibe, ezetimibe]
Kidney dysfunction / kidney damage [2]: confers renoprotective effects
Proteinuria-lowering effects [4]: enhances proteinuria-lowering effects of pitavastatin calcium

% Released into 0.1 N HCl with 0.3% Tween 80 at sampling time (min) [1, 5]: 79%
% Released into Phosphate Buffer (pH 6.8) with 0.3% Tween 80 at sampling time (min) [1, 5]: 69%
% Released into 0.1 N HCl with 0.3% Tween 80 at sampling time (min) [1, 6]: 84%
% Released into Phosphate Buffer (pH 6.8) with 0.3% Tween 80 at sampling time (min) [1, 6]: 90%
% Released into 0.1 N HCl with 0.3% Tween 80 at sampling time (min) [1, 7]: 86%
% Released into Phosphate Buffer (pH 6.8) with 0.3% Tween 80 at sampling time (min) [1, 7]: 95%
% Released into 0.1 N HCl with 0.3% Tween 80 at sampling time (min) [1, 8]: 89%
% Released into Phosphate Buffer (pH 6.8) with 0.3% Tween 80 at sampling time (min) [1, 8]: 97%
% Released into 0.1 N HCl with 0.3% Tween 80 at sampling time (min) [1, 9]: 90%
% Released into Phosphate Buffer (pH 6.8) with 0.3% Tween 80 at sampling time (min) [1, 9]: 98%
% Released into 0.1 N HCl with 0.3% Tween 80 at sampling time (min) [1, 10]: 81%
% Released into Phosphate Buffer (pH 6.8) with 0.3% Tween 80 at sampling time (min) [1, 10]: 90%
% Released into 0.1 N HCl with 0.3% Tween 80 at sampling time (min) [1, 11]: 87%
% Released into Phosphate Buffer (pH 6.8) with 0.3% Tween 80 at sampling time (min) [1, 11]: 96%
% Released into 0.1 N HCl with 0.3% Tween 80 at sampling time (min) [1, 12]: 89%
% Released into Phosphate Buffer (pH 6.8) with 0.3% Tween 80 at sampling time (min) [1, 12]: 97%
% Released into 0.1 N HCl with 0.3% Tween 80 at sampling time (min) [1, 13]: 86%
% Released into Phosphate Buffer (pH 6.8) with 0.3% Tween 80 at sampling time (min) [1, 13]: 99%
% Released into 0.1 N HCl with 0.3% Tween 80 at sampling time (min) [1, 14]: 89%
% Released into Phosphate Buffer (pH 6.8) with 0.3% Tween 80 at sampling time (min) [1, 14]: 100%
% Released into 0.1 N HCl with 0.3% Tween 80 at sampling time (min) [1, 15]: 90%
% Released into Phosphate Buffer (pH 4.5) with 0.3% Tween 80 at sampling time (min) [1, 15]: 82%
% Released into Phosphate Buffer (pH 6.8) with 0.3% Tween 80 at sampling time (min) [1, 15]: 81%
% Released into 0.1 N HCl with 0.3% Tween 80 at sampling time (min) [1, 16]: 99%
% Released into Phosphate Buffer (pH 4.5) with 0.3% Tween 80 at sampling time (min) [1, 16]: 100%
% Released into Phosphate Buffer (pH 6.8) with 0.3% Tween 80 at sampling time (min) [1, 16]: 98%
% Released into 0.1 N HCl with 0.3% Tween 80 at sampling time (min) [1, 17]: 100%
% Released into Phosphate Buffer (pH 4.5) with 0.3% Tween 80 at sampling time (min) [1, 17]: 102%
% Released into Phosphate Buffer (pH 6.8) with 0.3% Tween 80 at sampling time (min) [1, 17]: 102%
% Released into 0.1 N HCl with 0.3% Tween 80 at sampling time (min) [1, 18]: 100%
% Released into Phosphate Buffer (pH 4.5) with 0.3% Tween 80 at sampling time (min) [1, 18]: 102%
% Released into Phosphate Buffer (pH 6.8) with 0.3% Tween 80 at sampling time (min) [1, 18]: 102%
% Released into 0.1 N HCl with 0.3% Tween 80 at sampling time (min) [1, 19]: 100%
% Released into Phosphate Buffer (pH 4.5) with 0.3% Tween 80 at sampling time (min) [1, 19]: 102%
% Released into Phosphate Buffer (pH 6.8) with 0.3% Tween 80 at sampling time (min) [1, 19]: 102%
% Released into 0.1 N HCl with 0.3% Tween 80 at sampling time (min) [1, 20]: 99%
% Released into Phosphate Buffer (pH 4.5) with 0.3% Tween 80 at sampling time (min) [1, 20]: 102%
% Released into Phosphate Buffer (pH 6.8) with 0.3% Tween 80 at sampling time (min) [1, 20]: 102%
Assay (%) ([3]; 3 Months): 96.4%
Impurities (%), Major ([3]; 3 Months): 0.03%
Impurities (%), Total ([3]; 3 Months): 0.03%
Assay (%) ([3]; 6 Months): 97%
Impurities (%), Major ([3]; 6 Months): 0.09%
Impurities (%), Total ([3]; 6 Months): 0.09%
Assay (%) ([3]; 9 Months): 95%
Impurities (%), Major ([3]; 9 Months): 0.08%
Impurities (%), Total ([3]; 9 Months): 0.13%
Assay (%) ([3]; 12 Months): 96.5%
Impurities (%), Major ([3]; 12 Months): 0.05%
Impurities (%), Total ([3]; 12 Months): 0.05%
Assay (%) ([3]; Initial): 98.2%
Impurities (%), Major ([3]; Initial): 0.02%
Impurities (%), Total ([3]; Initial): 0.02%
Structure (SMILES): O=C([O-])C[C@H](O)C[C@H](O)/C=C/c1c(C2CC2)nc2ccccc2c1-c1ccc(F)cc1.O=C([O-])C[C@H](O)C[C@H](O)/C=C/c1c(C2CC2)nc2ccccc2c1-c1ccc(F)cc1.[Ca+2] [Pitavastatin Ca, pitavastatin calcium]
Kidney dysfunction / kidney damage [2]: additively ameliorates kidney damage
